Source: patent publication US12390435B2, “Electrophiles and electrophile pro-drugs as RAD51 inhibitors” (University of Pittsburgh—Of the Commonwealth System of …, priority 2018, dated 2025)

Columns and labels:
MCF-10A cells = test: FACS cell cycle analysis; assay type: cell-based; conditions: 5 μM, 24 hr
Experimental: (§1) Adherent and nonadherent cells were collected, centrifuged at 2000×rpm for 10 min, washed with ice-cold phosphate-buffered saline, fixed with cold 70% ethanol at 4° C. for 30 mins, and stained with 50 μg/mL propidium iodide (Sigma-Aldrich). FACS analysis was performed at the University of Pittsburgh Department of Immunology Unified Flow Core Facility. Three individual experiments were done, and statistical comparisons among phases (G0/G1, S, and G2/M) were determined by one-way analysis of variance followed by Tukey post-test.

[1] = system: MDA-MB-231 and MDA-MB-468 cells; test: FACS cell cycle analysis; assay type: cell-based; conditions: 5 μM, 24 hr
Experimental: as §1

MDA-MB-468 cells = test: Matrigel cell invasion assay; assay type: cell-based; conditions: NO2-OA/NO2-SA 5 μM, JSH-23 10 μM, TNFα 20 ng/mL, 24 hr
Experimental: Cells were then suspended in migration media and placed in the top well of invasion chambers (EMD Millipore). Chemoattractant (5% FBS) was placed in the lower chamber for 24 hr at 37° C. to attract invasive cells. Cells were then harvested and invasion rates were determined according to manufacturer's protocol. Three individual experiments were done, and statistical comparison among treatments was determined by one-way analysis of variance followed by Tukey post-test.

RAD51 = test: Biotinylated nitro fatty acid affinity capture of RAD51; assay type: binding; conditions: 293T cells expressing WT or mutant RAD51
Experimental: HEK 293T were transiently transfected with Fugene 6 (Promega) and 5 μg RAD51 expressing vectors (wild-type, C312S, or C319S). […] Cells were prepared as above. […] Detection of RAD51 was accomplished by immunoblot with RAD51 antibody (1:2000) with actin antibody (1:3000) probed as loading control.

[2] = system: NHEJ (EJ5-GFP, U2OS cells); test: EJ5-GFP NHEJ reporter assay in U2OS cells; assay type: cell-based; conditions: 5 μM, 48 h flow cytometry or 68 h live-cell microscopy
Experimental: (§2) Measurements of NHEJ, HR, Alt-EJ and SSA assays were performed as previously described. HR activity was measured by counting GFP-positive cells by flow cytometry at the MWRI flow cytometry core using a BD LSRII (BD Biosciences). RAD51 overexpressing cells were generated by stable transfection of pLVX RAD51 IRES Neo and selection with geneticin (Invitrogen).
U2OS cells were prepared as above, but 5 h following compound treatment, cells were transferred into the Incucyte Zoom (Essen) live-cell imaging automated fluorescence microscope at 37° C. with 5% CO2. Cell confluence and green object count per mm2 were determined using Incucyte Zoom software. […]
NO2-OA-dependent effects on HR DNA repair were further investigated by utilizing a DRGFP reporter assay. This analysis quantifies intracellular recombination of an integrated cDNA cassette of two tandem non-fluorescent GFP constructs following introduction of an I-SceI cleavage to the system by measuring the fluorescent GFP protein that is produced following successful recombination. […] A novel strategy was used to measure the kinetics of changes in HR in live cells by using automated fluorescence microscopy to track the emergence of GFP positive cells over time in monolayers, as opposed to making static measurements of detached cells using flow cytometry. […]

[3] = system: single strand annealing (SSA); test: GFP reporter assay for single strand annealing; assay type: cell-based; conditions: 5 μM, 48 h
Experimental: FIG. 13B is GFP-reporter assays examining effects of OA-NO2 on different DNA DSB repair pathways described in FIG. 14A. U2OS cells containing the GFP-reporter construct DR-GFP were transfected with an I-SceI plasmid and treated with vehicle (gray), 5 μM OA (green) or 5 μM OA-NO2 (red). The number of GFP positive cells were detected by flow cytometry at 48 h. GFP-reporter measuring NHEJ: n=3, SSA: n=3; HDR: n=3; Alt-EJ: n=1.
as §2

RAD51-ABL complex = target: T1, RAD51-ABL complex (Homo sapiens, UniProt Q06609); test: FLAG-RAD51/ABL immunoprecipitation in 293T cells; assay type: cell-based; conditions: 0 to 5 μM, 1 h
T1 construct: expressed in transfected cells; host or cells: HEK 293T
Experimental: Cell lysates and immunoprecipitation were prepared. For immunoprecipitation analysis, one million HEK 293T cells were transiently transfected with Fugene 6 (Promega) and 2 μg pQCXIP (EV) or FLAG-RAD51 pQCXIP plasmids and precipitated with Anti-FLAG M2 Affinity Gel (Sigma).
Cys319 is located in the RAD51 C-terminus within one of the two ABL-SH3 binding domains (amino acids 283-286 and 318-321). […] ABL regulates RAD51 activity via sequential phosphorylation of RAD51 Tyr54 and then Tyr315.

[4] = system: homologous recombination (DR-GFP, U2OS cells); test: DR-GFP HR reporter assay in U2OS cells; assay type: cell-based
Experimental: as §2
U2OS cells were prepared as above, but 5 h following compound treatment, cells were transferred into the Incucyte Zoom (Essen) live-cell imaging automated fluorescence microscope at 37° C. with 5% CO2. Cell confluence and green object count per mm2 were determined using Incucyte Zoom software. Green object count per field was normalized to cell confluency to correct for NO2—OA-induced effects on cell proliferation.
NO2-OA-dependent effects on HR DNA repair were further investigated by utilizing a DRGFP reporter assay. This analysis quantifies intracellular recombination of an integrated cDNA cassette of two tandem non-fluorescent GFP constructs following introduction of an I-SceI cleavage to the system by measuring the fluorescent GFP protein that is produced following successful recombination. […] A novel strategy was used to measure the kinetics of changes in HR in live cells by using automated fluorescence microscopy to track the emergence of GFP positive cells over time in monolayers, as opposed to making static measurements of detached cells using flow cytometry. […] This was indicated by an absence of changes in the number of GFP positive cells following I-SceI cleavage after 48 h by flow cytometric analysis or over 68 h by live-cell fluorescence microscopy (FIGS. 2C, 2D).

T1 sequence (Q06609 whole entry, one chain of several): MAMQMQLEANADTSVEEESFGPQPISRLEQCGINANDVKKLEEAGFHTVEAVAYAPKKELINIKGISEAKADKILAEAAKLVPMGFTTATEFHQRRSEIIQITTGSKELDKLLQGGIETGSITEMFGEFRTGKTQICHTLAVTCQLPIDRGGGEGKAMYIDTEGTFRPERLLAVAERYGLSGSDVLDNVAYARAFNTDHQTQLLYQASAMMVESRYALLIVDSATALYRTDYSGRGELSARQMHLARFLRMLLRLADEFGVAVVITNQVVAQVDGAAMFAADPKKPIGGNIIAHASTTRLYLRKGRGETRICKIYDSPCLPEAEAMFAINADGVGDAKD

CCCCCCCCC(=CCCCCCCCC(=O)O)[N+](=O)[O-] [NO2-OA, 10-nitro-octadec-9-enoic acid]
cell cycle phase populations (G0/G1, S, G2/M) (MCF-10A cells): not affected | cell cycle phase distribution [1]: significantly increased the percentage of cells at G2/M phase | TNFα-induced invasion (MDA-MB-468 cells): significantly inhibited | RAD51 cysteine targeted (Cys312Ser, Cys319Ser mutants) (RAD51): preferential reaction of NO2-OA with Cys319 | effect on NHEJ (GFP positive cells) [2]: no effect | effect on single strand annealing [3]: also inhibits single strand annealing | ABL bound to RAD51 (RAD51-ABL complex): decreased the amount of ABL bound to RAD51 | RAD51 Tyr315 phosphorylation (RAD51-ABL complex): inhibited | HR activity in RAD51 overexpressing versus control reporter cells ([4]; 5 μM NO2-OA): significantly increased | decrease in number of GFP-positive cells (HR) ([4]; daily 5 μM, over 68 h, live-cell microscopy): 2 fold | decrease in number of GFP positive cells (HR) ([4]; daily NO2-OA, 48 h, flow cytometry, versus OA or vehicle): 2 fold
